The values below come from the SangsterLogP compilation.

Data set [1] is described as follows: method code SF-AS, from DOI: 10.1016/j.bmc.2004.10.037, PMID: 15653345.
Data set [2] can be described thus: method code SF-HPLC, from DOI: 10.1080/01483919108049396. Particulars: pH 7.0.
Data set [3] is described as follows: method code SF, from PMID: 25193232. Particulars: pH 7.4.
The nature of data set [4]: method code SF-AS, from DOI: 10.1135/cccc19831077. Particulars: pH 3.5.
A short description of data set [5]: method code SF-HPLC, from PMID: 9554875. Particulars: pH 6.8.
The nature of data set [6]: method code SF, from DOI: 10.1007/bf01610114, PMID: 6839039.
Data set [7] in a line: method code SF, from DOI: 10.1016/0006-2952(79)90295-8, PMID: 36087.
The nature of data set [8]: method code SF-HPLC, from DOI: 10.1023/a:1015902024664, PMID: 2235895. Particulars: pH 7.0.
Assay in data set [9]: not given
The source holds these as a separate data set.

Data set [10] in a line: method code SF-RC, from DOI: 10.1021/jf60186a044, PMID: 4688915.
Assay in data set [11]: not given
This is another data set of the same source.

The nature of data set [12]: method code SF, from Yoshimoto, M. (1982). Quantitative structure-activity relationships and structure patterns of drugs. SankyoÌ„ KenkyuÌ„jo nenpoÌ„ (Annual report of Sankyo Research Laboratories), 34, 1-38.
The nature of data set [13]: method code SF-HPLC, from DOI: 10.1016/0378-5173(90)90303-l. Particulars: pH 7.4.
The nature of data set [14]: method code SF, from PMID: 7274411.
Data set [15] can be described thus: method code SF, from DOI: 10.1016/0168-3659(92)90078-6. Particulars: pH 7.0.
A short description of data set [16]: method code SF-AS, from DOI: 10.1021/jm00040a014, PMID: 8035429. Particulars: pH 7.4.
Data set [17] is described as follows: method code SF, from Wang, L.; Li, H.; Wang, X.; Zhang, Z. (1993). Determination of aqueous solubilities and partition coefficients of substitutive ethylketone congeners by generator column. Huanjing Huaxue, 12(2)151-154.
The nature of data set [18]: method code SF-HPLC, from DOI: 10.1016/0378-5173(89)90028-8.
Data set [19] in a line: method code SF-HPLC, from DOI: 10.1016/s0024-3205(00)00615-9, PMID: 10901288. Particulars: pH 5.0.
Assay in data set [20]: not given
The source holds these as a separate data set.

A short description of data set [21]: method code SF-HPLC, from DOI: 10.1016/0378-5173(90)90181-3. Particulars: pH 7.4.
Data set [22] is described as follows: method code SF-HPLC, from DOI: 10.1023/a:1011018730459, PMID: 11451042.

In [1], `OCCN1CCN(Cc2ccc(O)c3ncccc23)CC1` returned a lipophilicity (logP) of 0.54.

`O=C(Nc1ccn(C2OC(CO)C(O)C2O)c(=O)n1)c1ccccc1` (stereo not drawn) had a logD in [2] of 0.3.

Take `O=C(NOC[C@H](O)CO)c1ncc2cncn2c1Nc1ccc(I)cc1F`: the logD in [3] worked out at 1.1.

Turning to `Cc1cc(CC(=O)O)ccc1OCc1ccccc1`, the logD in data set [4] is 3.37.

In data set [5], `Cc1cn(C2C=CC(COP3(=O)OCc4cc([N+](=O)[O-])ccc4O3)O2)c(=O)[nH]c1=O` (stereo not drawn) displayed a pH-dependent lipophilicity (logD) of 0.18.

`CCCCCOC(=O)c1ccccc1C(=O)OCCCCC` gave a logP in data set [6] of 4.85.

Regarding `CCN1CCN(Cc2ccc(OC)c(OC)c2OC)CC1`, the lipophilicity (logP) worked out at 1.69.

Compound `CC(=O)NCc1cccc(OCC(O)CNC(C)C)c1` (stereo not drawn) gave a log partition coefficient (logP) in [7] of 0.34.

`Cc1cn(C2C=CC(COP3(=O)OCc4cc(Cl)ccc4O3)O2)c(=O)[nH]c1=O` (stereo not drawn) yielded a logD in data set [5] of 0.88.

`CCCCCCCCCC(=O)OC[C@H]1O[C@@H](n2cc(C)c(=O)[nH]c2=O)C[C@@H]1N=[N+]=[N-]` showed a logD in data set [8] of 4.45.

For the compound `CCN(CC)CCCC(C)Nc1c2ccc(Cl)cc2nc2ccc(OC)cc12` (stereo not drawn), the lipophilicity (logP) was 5.09.

As to `CCCC(=O)OC[C@H]1O[C@@H](n2cc(C)c(=O)[nH]c2=O)C[C@@H]1N=[N+]=[N-]`, in data set [8], the logD was 1.5.

For the compound `Cn1c(=O)nc(-c2ccccc2)c2cc(O)ccc21`, in data set [9], the logP was 1.72.

As to `CCOc1ccc(C(c2ccc(C)cc2)C(Cl)(Cl)Cl)cc1` (stereo not drawn), the log partition coefficient (logP) in data set [10] was 3.96.

With `OC1(c2cccc(I)c2)c2ccccc2C2=NCCN21` (stereo not drawn), the logP in data set [11] was 2.3.

Consider `COC1(NC(=O)CSc2nc3c[nH]cnc-3n2)C(=O)N2C(C(=O)O)=C(COC(N)=O)CSC21` (stereo not drawn), for which the logP in [12] was -1.72.

Take `CCC(=O)OCOC(=O)c1cc(S(N)(=O)=O)c(Cl)cc1NCc1ccco1`: the pH-dependent lipophilicity (logD) in data set [13] is 2.9.

`CN1C(=O)CN=C(c2ccccc2F)c2cc([N+](=O)[O-])ccc21` gave a log distribution coefficient (logD) in [14] (pH 4.0) of 2.05.

In data set [15], `CCCC(C)C(=O)OCC1CCC(n2cnc3c(O)ncnc32)O1` (stereo not drawn) showed a pH-dependent lipophilicity (logD) of 1.

As for `CCOP(=O)(OCC)C(=O)CCCCNc1ccn(C2CSC(CO)O2)c(=O)n1` (stereo not drawn), the log distribution coefficient (logD) in data set [16] worked out at 1.21.

For `CC(C)OC(=O)c1ccccc1C(=O)OC(C)C`, the lipophilicity (logP) in data set [6] turned out to be 2.83.

For the compound `O=C(CSc1ccccc1)c1ccc(Cl)cc1`, the logP in [17] was found to be 2.69.

Consider `CC(C)C(=O)OCC1CCC(n2cnc3c(O)ncnc32)O1` (stereo not drawn), for which the logD in [15] turned out to be 0.02.

In the case of `OC1(c2cccc(Br)c2)c2ccccc2C2=NCCN21` (stereo not drawn), the log partition coefficient (logP) in [11] was determined as 1.97.

As for `COC1(NC(=O)CSc2nncs2)C(=O)N2C(C(=O)O)=C(COC(N)=O)CSC21` (stereo not drawn), the logP in [12] was -1.95.

As to `O=C(CSc1ccccc1)c1ccccc1`, the logP in [17] was determined as 1.88.

Turning to `CCOP(=O)(OCC)C(=O)OCC1OC(n2ccc(NC(C)=O)nc2=O)CS1` (stereo not drawn), in [16], the logD was found to be 0.65.

In data set [18], `CCn1cc(C(=O)OCOC(C)=O)c(=O)c2ccc(C)nc21` gave a lipophilicity (logP) of 1.21.

Compound `O=C(O)Cc1ccc(OCCCc2ccccc2)c(Cl)c1` displayed a logD in [4] of 3.9.

Turning to `CSc1ccc(C(c2ccc(SC)cc2)C(Cl)(Cl)Cl)cc1`, in [10], the logP came out at 3.85.

`CCN(CC)C(=O)C(C#N)=Cc1cc(OC(=O)NC(C)(C)C)c(O)c([N+](=O)[O-])c1` yielded a pH-dependent lipophilicity (logD) in data set [19] of 1.8.

Regarding `C/N=C1/CN(O)C(c2ccccc2)=c2cc(Cl)ccc2=N1`, the logD in [14] (pH 8.0) is 2.12.

In turn, `CNC(=O)COc1ccc(OCC(O)CNC(C)C)cc1` (stereo not drawn) came in with a logP in [7] of 0.56.

With `Clc1ccc(C(Cn2ccnc2)OCc2ccsc2Cl)c(Cl)c1` (stereo not drawn), the logP in data set [20] stood at 4.7.

Consider `CNC(=O)COc1cccc(OCC(O)CNC(C)C)c1` (stereo not drawn), for which the logP in data set [7] stood at 0.35.

Compound `CCOP(=O)(CC(=O)OCC1OC(n2ccc(N)nc2=O)CS1)OCC` (stereo not drawn) registered a log distribution coefficient (logD) in [16] of 0.48.

Take `O=C(NOCCO)c1ccn2cncc2c1Nc1ccc(I)cc1F`: the logD in [3] is 2.05.

For the compound `CCCCNC(=O)Oc1cc(/C=C(\C#N)C(=O)N(CC)CC)cc([N+](=O)[O-])c1O`, the log distribution coefficient (logD) in data set [19] is 1.98.

Consider `O=C(Nc1ncnc2c1ncn2[C@H]1C[C@H](O)[C@@H](CO)O1)c1ccccc1`, for which the logD in data set [2] was determined as 0.22.

In data set [17], `Cc1ccc(SCC(=O)c2ccccc2)cc1` displayed a log partition coefficient (logP) of 2.46.

In [14] (pH 8.0), `O=C1CN=C(c2ccccc2)c2cc([N+](=O)[O-])ccc2N1` had a logD of 2.06.

Consider `OC(Cn1ccnc1)(Cn1cncn1)c1ccc(Cl)cc1Cl` (stereo not drawn), for which the lipophilicity (logP) in data set [20] was determined as 1.6.

In the case of `CC(C)COC(=O)c1ccccc1C(=O)OCC(C)C`, in data set [6], the log partition coefficient (logP) came to 4.11.

In turn, `CCOCCOCCOc1ccc2c(c1)c(-c1ccccc1)nc(=O)n2C` came in with a logP in data set [9] of 1.84.

With `CCCCCCC(O)(Cn1ccnc1)c1ccc(Cl)cc1Cl` (stereo not drawn), the logP in data set [20] was 5.2.

With `C#CCN(C)Cc1ccc(O)c2ncccc12`, the lipophilicity (logP) in [1] stood at 1.92.

For the compound `O=C(OCn1ncc2c(=O)[nH]cnc21)c1cccc(Cn2ccnc2)c1`, the logD in data set [21] turned out to be 0.97.

In [4], `O=C(O)Cc1ccc(OCc2ccccc2)c(Cl)c1` had a logD of 3.43.

As for `O=C(OCn1ncc2c(=O)[nH]cnc21)c1cccc(CN2CCOCC2)c1`, the logD in [21] is 1.12.

The compound `CCOC(=O)c1cc(S(N)(=O)=O)c(Cl)cc1NCc1ccco1` came in with a logD in [13] of 2.67.

For `CCN(CC)C(=O)COC(=O)c1cc(S(N)(=O)=O)c(Cl)cc1NCc1ccco1`, in data set [13], the pH-dependent lipophilicity (logD) was 2.45.

As to `CCCCC(=O)OCC1OC(n2cnc3c(NC4CCCC4)ncnc32)C(O)C1O` (stereo not drawn), the logP in data set [22] stood at 2.79.

In the case of `OC1(c2cccc(Cl)c2)c2ccccc2C2=NCCN21` (stereo not drawn), in data set [11], the logP was found to be 1.85.

In data set [2], `O=C(Nc1ncnc2c1ncn2[C@@H]1O[C@H](CO)[C@@H](O)[C@H]1O)c1ccccc1` registered a log distribution coefficient (logD) of -0.1.

Regarding `CCn1cc(C(=O)OCOC(=O)C(C)C)c(=O)c2ccc(C)nc21`, the logP in [18] was found to be 2.17.

For the compound `CCCCCC(=O)OC[C@H]1O[C@@H](n2cc(C)c(=O)[nH]c2=O)C[C@@H]1N=[N+]=[N-]`, in [8], the logD worked out at 2.45.

`OC[C@H]1O[C@@H](n2cnc3c(NC4CCCC4)ncnc32)[C@H](O)[C@@H]1O`: the logP in [22] came out at 1.21.

Consider `CCOC(=O)C(CS)NCc1ccc(O)c2ncccc12` (stereo not drawn), for which the logP in [1] worked out at 0.21.

Compound `CC(C)(C)C(=O)OCC1CCC(n2cnc3c(O)ncnc32)O1` (stereo not drawn) gave a logD in data set [15] of 0.6.

`CCC(C)SCC(=O)NC1(OC)C(=O)N2C(C(=O)O)=C(COC(N)=O)CSC21` (stereo not drawn) had a log partition coefficient (logP) in data set [12] of -1.38.

Consider `COc1cccc2c1OP(=O)(OC[C@@H]1C=C[C@H](n3cc(C)c(=O)[nH]c3=O)O1)OC2` (stereo partly drawn), for which the log distribution coefficient (logD) in [5] came to 0.15.

Turning to `Cn1c(=O)nc(-c2ccccc2)c2ccccc21`, the log partition coefficient (logP) in data set [9] came out at 1.79.

Consider `O=C(OCC1OC(n2cnc3c(NC4CCCC4)ncnc32)C(O)C1O)C1CCCCC1` (stereo not drawn), for which the logP in [22] stood at 2.95.

Turning to `O=C(OCn1ncc2c(=O)[nH]cnc21)c1ccc(CN2CCOCC2)cc1`, in data set [21], the logD came out at 1.13.

Consider `COc1ccc(C(c2ccc(SC)cc2)C(Cl)(Cl)Cl)cc1` (stereo not drawn), for which the logP in data set [10] stood at 2.9.

In data set [18], `CCC(=O)OCOC(=O)c1cn(CC)c2nc(C)ccc2c1=O` had a log partition coefficient (logP) of 1.7.

For `CN1CCN(CCCN2c3ccccc3Sc3ccc(C(F)(F)F)cc32)CC1`, the logP worked out at 4.71.

With `CC(O)CONC(=O)c1ncc2cncn2c1Nc1ccc(I)cc1F` (stereo not drawn), in data set [3], the logD is 2.2.
